Literature values, collected in patent US20240009433A1, “METHODS FOR CONTINUOUS ORAL DRUG DELIVERY” (SynAgile Corporation, priority 2020, published 2024).

Columns and labels:
[1] = in vivo
[2] = in vivo; remark: listed apart in the source
[3] = in vivo; remark: listed apart in the source

| plasma half-life [1] [h] | crossing of the blood-brain barrier [2] | SMILES | hepatotoxicity [3] |
| --- | --- | --- | --- |
| 2 to 3 | crosses the barrier | Cc1ccc(C(=O)c2cc(O)c(O)c([N+](=O)[O-])c2)cc1 [Tolcapone] | use is limited by its hepatotoxicity |
| 0.4 to 0.7 | does not cross the blood-brain barrier | CCN(CC)C(=O)/C(C#N)=C/c1cc(O)c(O)c([N+](=O)[O-])c1 [Entacapone] | – |
